From publication PMC8611036, “An integrated method for optimized identification of effective natural inhibitors against SARS-CoV-2 3CLpro” (Scientific Reports, 2021)
Non-standard residues stand in square brackets, D forms with d. Residues, ends and D or L forms follow the SMILES beside them. 2Thi = N[C@@H](Cc1cccs1)C(=O)O; Cha = N[C@@H](CC1CCCCC1)C(=O)O

System: SARS-CoV 3CLpro
Type: biochemical
Conditions: activity class by pIC50 threshold 6

SMILES	Inact.(<6)/Act.(>=6)
Cc1nc(C)c(C(=O)C2=C(O)C(=O)N(CCCN3CCOCC3)C2c2cccc([N+](=O)[O-])c2)s1 (stereo not shown) [CMP289]	Inact. (Inact.(<6))
O=[N+]([O-])c1ccccc1SSc1nccs1 [CMP266]	Inact. (Inact.(<6))
COc1cc(CN2CCN(S(=O)(=O)c3ccc4c(c3)C(=O)C(=O)N4)CC2)cc(OC)c1OC [CMP236]	Inact. (Inact.(<6))
CC(=O)N[C@@H](CO)C(=O)N[C@@H](C)C(=O)N[C@H](C(=O)N[C@@H](CC(C)C)C(=O)N[C@H](C=O)Cc1cccs1)C(C)C [CMP216] (Ac-SAVL[2Thi]-aldehyde)	Inact. (Inact.(<6))
Cc1cc(S(=O)(=O)c2c([N+](=O)[O-])cc(C(F)(F)F)cc2[N+](=O)[O-])c(Cl)cc1Cl [CMP288]	Act. (Act.(>=6))
CC(C)c1cc2c(cc1O)[C@@]1(C)CC[C@H](O)C(C)(C)[C@@H]1CC2 [CMP163]	Inact. (Inact.(<6))
O=C[C@H](Cc1c[nH]cn1)NC[C@@H]1C[C@H]2CCCC[C@@H]2CN1C(=O)c1ccccc1-c1ccccc1 [CMP261]	Inact. (Inact.(<6))
CC(=O)Nc1ccc(N(C(=O)Cn2cc(-c3ccccc3)nn2)C(C(=O)NC(C)(C)C)c2ccsc2)cc1 (stereo not shown) [CMP210]	Inact. (Inact.(<6))
CC(C)(C)NC(=O)C(c1cnccn1)N(C(=O)c1ccco1)c1ccc(C(C)(C)C)cc1 (stereo not shown) [CMP204]	Inact. (Inact.(<6))
COc1cc(/C=C/C(=O)/C=C(O)/C=C/c2ccc(O)c(OC)c2)ccc1O [CMP156]	Inact. (Inact.(<6))
O=C1Nc2ccc(S(=O)(=O)N3CCN(c4ccccn4)CC3)cc2C1=O [CMP239]	Inact. (Inact.(<6))
CC(=O)n1nc(SSc2ccccc2[N+](=O)[O-])nc1-c1cccnc1 [CMP272]	Inact. (Inact.(<6))
C=C(CCSc1ccccc1NC(=O)/C=C/c1ccccc1)OC [CMP107]	Inact. (Inact.(<6))
O=C(Oc1cncc(Cl)c1)c1ccncc1 [CMP167]	Act. (Act.(>=6))
O=[N+]([O-])c1cc(C(F)(F)F)ccc1S(=O)(=O)c1ccc(Cl)cc1 [CMP287]	Inact. (Inact.(<6))
CNc1ccc(N(Cc2ccsc2)C(=O)Cn2nnc3ccccc32)cc1 [CMP223]	Inact. (Inact.(<6))
CC1CC(C)CN(S(=O)(=O)c2ccc3c(c2)C(=O)C(=O)N3C)C1 (stereo not shown) [CMP250]	Inact. (Inact.(<6))
CC(C)(C)NC(=O)C(c1cccnc1)N(C(=O)c1ncco1)c1ccc(C(C)(C)C)cc1 (stereo not shown) [CMP202]	Inact. (Inact.(<6))
O=C[C@H](Cc1cnc[nH]1)NC[C@H]1C[C@@H]2CCCC[C@H]2CN1C(=O)c1ccc(-c2ccccc2)cc1 [CMP257]	Inact. (Inact.(<6))
Cc1cc(C)nc(SSc2ccccc2[N+](=O)[O-])n1 [CMP274]	Act. (Act.(>=6))
CCOC(=O)c1ccccc1SSc1nc(C(=O)OC)c(C)[nH]1 [CMP264]	Inact. (Inact.(<6))
O=C[C@H](Cc1c[nH]cn1)NC[C@@H]1C[C@H]2CCCC[C@@H]2CN1C(=O)c1cccc(-c2ccccc2)c1 [CMP260]	Inact. (Inact.(<6))
COc1ncccc1-c1ccc(N(Cc2ccsc2)C(=O)Cn2nnc3ccccc32)cc1 [CMP225]	Act. (Act.(>=6))
O=C(Oc1cncc(Cl)c1)c1ccc(-c2ccccc2[N+](=O)[O-])o1 [CMP281]	Act. (Act.(>=6))
O=C1Nc2ccc(S(=O)(=O)N3CCN(C(=O)c4ccco4)CC3)cc2C1=O [CMP238]	Inact. (Inact.(<6))
CN1CCN(S(=O)(=O)c2ccc3c(c2)C(=O)C(=O)N3Cc2ccccc2)CC1 [CMP242]	Inact. (Inact.(<6))
CC(=O)N[C@@H](CC(N)=O)C(=O)N[C@H](C(=O)N[C@@H](CC1CCCCC1)C(=O)N[C@H](C=O)Cc1c[nH]cn1)C(C)C [CMP217] (Ac-NV[Cha]H-aldehyde)	Inact. (Inact.(<6))
CC(C)(C)NC(=O)C(c1cccnc1)N(C(=O)c1ccc(Cl)o1)c1ccc(C(C)(C)C)cc1 (stereo not shown) [CMP201]	Inact. (Inact.(<6))
